Measured values published in patent US11826351B2, “Compounds useful as kinase inhibitors” (Loxo Oncology, Inc., priority 2015, dated 2023).

Experiments:
Recombinant EGFR = target: T1, Recombinant EGFR (Homo sapiens, UniProt P00533); experiment: EGFR binding affinity (LanthaScreen TR-FRET); conditions: Kinase Tracer 199, 5 h incubation
T1 construct: purchased Invitrogen
In short: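 TR-FRET binding (LanthaScreen) with recombinant EGFR; signal measured across a compound concentration range. IC50 obtained by fitting RFU against log[inhibitor] to a variable-slope model.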

[1] = target: T2, Recombinant BTK^WT kinase (Homo sapiens, UniProt Q06187); experiment: BTK WT binding affinity (LanthaScreen TR-FRET); conditions: Kinase Tracer 236, 5 h incubation
T2 construct: purchased Invitrogen
In short: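 Tracer-displacement TR-FRET: 2.5 nM recombinant BTK^WT, 2 nM Eu anti-His antibody and 15 nM Kinase Tracer 236 incubated with varying inhibitor concentrations for 5 h in Kinase Buffer A. Signal read at 340 nm excitation, 615/665 nm emission; IC50 from variable-slope log[inhibitor]–response fit.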

[2] = target: T3, Recombinant BTK^C481S kinase (Homo sapiens, UniProt Q06187, C481S); experiment: BTK C481S binding affinity (LanthaScreen TR-FRET); conditions: Kinase Tracer 236, 5 h incubation
T3 construct: purchased SignalChem
In short: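 BTK C481S tracer-displacement TR-FRET: 5 nM His-tagged kinase, 2 nM Eu anti-His antibody and 30 nM Kinase Tracer 236 incubated with titrated inhibitor for 5 h in Kinase Buffer A. Read at 340 nm excitation, 615/665 nm emission; IC50 from variable-slope log[inhibitor]–response fit.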

[3] = system: OCI-Ly10 human DLBCL cells; experiment: OCI-Ly10 anti-proliferative activity (Resazurin); assay type: cell-based; conditions: Homo sapiens, OCI-Ly10, 72 h, OCI-Ly10 cells, 72 h compound treatment, Resazurin; read-out: Proliferation Assay OCI-Ly10-20% FBS
In short: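 OCI-Ly10 human DLBCL cells, whose growth depends on NFκB signalling, were seeded at 7.5×10^3 cells per well in 96-well plates with a range of compound concentrations and kept at 37° C for 72 h. Resazurin was then added, and after 5 h fluorescence was read at 590 nm.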

T1 sequence (P00533 25-1210): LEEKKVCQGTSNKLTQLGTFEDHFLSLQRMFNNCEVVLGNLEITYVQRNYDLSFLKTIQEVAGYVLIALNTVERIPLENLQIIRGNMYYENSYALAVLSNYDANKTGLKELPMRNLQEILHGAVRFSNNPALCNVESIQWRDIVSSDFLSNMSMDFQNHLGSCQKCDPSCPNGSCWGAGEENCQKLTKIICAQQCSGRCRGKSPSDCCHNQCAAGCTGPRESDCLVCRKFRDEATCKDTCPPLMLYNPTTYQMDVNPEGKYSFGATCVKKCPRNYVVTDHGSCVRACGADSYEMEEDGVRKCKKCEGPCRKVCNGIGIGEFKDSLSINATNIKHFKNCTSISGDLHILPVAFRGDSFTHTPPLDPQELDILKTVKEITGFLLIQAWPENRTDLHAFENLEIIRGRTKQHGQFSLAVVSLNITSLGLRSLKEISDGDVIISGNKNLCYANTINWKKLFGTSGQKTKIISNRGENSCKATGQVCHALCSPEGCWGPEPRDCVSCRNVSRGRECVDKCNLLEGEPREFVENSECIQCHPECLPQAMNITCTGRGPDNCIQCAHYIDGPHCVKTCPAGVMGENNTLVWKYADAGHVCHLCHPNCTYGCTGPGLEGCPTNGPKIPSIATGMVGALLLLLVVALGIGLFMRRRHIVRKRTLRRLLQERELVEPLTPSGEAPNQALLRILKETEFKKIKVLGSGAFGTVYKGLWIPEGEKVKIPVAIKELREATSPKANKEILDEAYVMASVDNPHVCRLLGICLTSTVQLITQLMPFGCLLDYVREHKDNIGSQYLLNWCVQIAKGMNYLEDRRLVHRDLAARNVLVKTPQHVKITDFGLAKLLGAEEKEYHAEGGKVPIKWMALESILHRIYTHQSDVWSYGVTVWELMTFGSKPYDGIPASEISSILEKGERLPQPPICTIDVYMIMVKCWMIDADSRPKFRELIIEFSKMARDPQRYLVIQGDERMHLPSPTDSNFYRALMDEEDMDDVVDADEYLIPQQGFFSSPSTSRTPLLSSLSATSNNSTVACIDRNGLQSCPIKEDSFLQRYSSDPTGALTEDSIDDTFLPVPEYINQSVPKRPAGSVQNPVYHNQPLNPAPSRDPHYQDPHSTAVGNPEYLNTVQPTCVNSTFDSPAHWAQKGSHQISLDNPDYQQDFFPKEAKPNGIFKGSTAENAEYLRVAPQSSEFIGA
T2 sequence (Q06187 whole entry): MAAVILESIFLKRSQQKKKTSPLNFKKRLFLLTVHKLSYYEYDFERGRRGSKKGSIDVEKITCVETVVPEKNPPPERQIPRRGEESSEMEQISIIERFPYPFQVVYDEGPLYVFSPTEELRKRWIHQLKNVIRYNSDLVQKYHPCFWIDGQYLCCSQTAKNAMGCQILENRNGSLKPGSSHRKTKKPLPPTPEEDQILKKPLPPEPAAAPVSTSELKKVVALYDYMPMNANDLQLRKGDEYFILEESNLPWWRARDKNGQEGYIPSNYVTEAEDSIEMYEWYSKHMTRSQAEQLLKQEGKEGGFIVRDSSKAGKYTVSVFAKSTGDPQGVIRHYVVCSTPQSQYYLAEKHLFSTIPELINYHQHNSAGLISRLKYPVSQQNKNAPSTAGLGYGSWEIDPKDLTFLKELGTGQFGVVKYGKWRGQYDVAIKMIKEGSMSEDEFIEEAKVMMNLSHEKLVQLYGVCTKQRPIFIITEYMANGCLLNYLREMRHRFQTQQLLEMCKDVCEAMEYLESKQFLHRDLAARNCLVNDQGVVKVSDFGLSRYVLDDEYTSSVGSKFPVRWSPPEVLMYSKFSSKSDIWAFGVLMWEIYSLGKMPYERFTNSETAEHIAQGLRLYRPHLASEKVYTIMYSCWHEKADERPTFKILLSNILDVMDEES
T3 sequence (Q06187 whole entry C481S): as the sequence (Q06187 whole entry) above, with C481S counted along it

SMILES | IC50 (Recombinant EGFR) [nM] | IC50 [1] [nM] | IC50 [2] [nM] | IC50 [3] [nM]
COc1ccc(F)cc1C(=O)NCc1ccc(-c2nn(CC(C)C(F)(F)F)c(N)c2C(N)=O)cc1 (stereo not shown) [Example 176, 5-amino-3-[4-[[(5-fluoro-2-methoxy-benzoyl)amino]methyl]phenyl]-1-(3,3,3-trifluoro-2-methyl-propyl)pyrazole-4-carboxamide] | 1000 to 10000 | < 10 | < 10 | 10 to 100
COc1ccc(F)cc1C(=O)NCc1ccc(-c2nn(C(C)C(F)(F)F)c(N)c2C(N)=O)cc1F (stereo not shown) [Example 177, 5-amino-3-[3-fluoro-4-[[(5-fluoro-2-methoxy-benzoyl)amino]methyl]phenyl]-1-(2,2,2-trifluoro-1-methyl-ethyl)pyrazole-4-carboxamide] | 1000 to 10000 | < 10 | < 10 | 10 to 100
COc1ccc(F)cc1C(=O)NCc1ccc(-c2nn(C(c3ccccc3)C(F)(F)F)c(N)c2C(N)=O)cc1 (stereo not shown) [Example 178, 5-Amino-3-[4-[[(5-fluoro-2-methoxy-benzoyl)amino]methyl]phenyl]-1-(2,2,2-trifluoro-1-phenyl-ethyl)pyrazole-4-carboxamide] | 1000 to 10000 | 10 to 100 | < 10 | 10 to 100
COc1ccc(F)cc1C(=O)NCc1ccc(-c2nn(C(C)C(F)(F)F)c(N)c2C(N)=O)c(F)c1 (stereo not shown) [Example 179, 5-amino-3-[2-fluoro-4-[[(5-fluoro-2-methoxy-benzoyl)amino]methyl]phenyl]-1-(2,2,2-trifluoro-1-methyl-ethyl)pyrazole-4-carboxamide] | 1000 to 10000 | < 10 | < 10 | 10 to 100
COc1ccc(F)cc1C(=O)NCc1ccc(-c2nn(C(C(C)C)C(F)(F)F)c(N)c2C(N)=O)cc1 (stereo not shown) [Example 180, 5-amino-3-[4-[[(5-fluoro-2-methoxy-benzoyl)amino]methyl]phenyl]-1-[2-methyl-1-(trifluoromethyl)propyl]pyrazole-4-carboxamide] | 1000 to 10000 | < 10 | < 10 | 10 to 100
CCC(n1nc(-c2ccc(CNC(=O)c3cc(F)ccc3OC)cc2)c(C(N)=O)c1N)C(F)(F)F (stereo not shown) [Example 181, 5-amino-3-[4-[[(5-fluoro-2-methoxy-benzoyl)amino]methyl]phenyl]-1-[1-(trifluoromethyl)propyl]pyrazole-4-carboxamide] | 1000 to 10000 | < 10 | < 10 | 10 to 100
COc1ccc(F)cc1C(=O)NCc1ccc(-c2nn(C3CCOC3)c(N)c2C(N)=O)c(F)c1F (stereo not shown) [Example 182, 5-amino-3-[2,3-difluoro-4-[[(5-fluoro-2-methoxy-benzoyl)amino]methyl]phenyl]-1-tetrahydrofuran-3-yl-pyrazole-4-carboxamide] | 1000 to 10000 | 10 to 100 | < 10 | 100 to 1000
COc1ccc(F)cc1C(=O)NCc1ccc(-c2nn([C@@H]3CCCOC3)c(N)c2C(N)=O)cc1 [Example 183, 5-amino-3-[4-[[(5-fluoro-2-methoxy-benzoyl)amino]methyl]phenyl]-1-[(3R)-tetrahydropyran-3-yl]pyrazole-4-carboxamide] | 1000 to 10000 | < 10 | < 10 | 100 to 1000
COc1ccc(F)cc1C(=O)NCc1ccc(-c2nn(C(C3CCOCC3)C(F)(F)F)c(N)c2C(N)=O)cc1 (stereo not shown) [Example 184, 5-amino-3-[4-[[(5-fluoro-2-methoxy-benzoyl)amino]methyl]phenyl]-1-(2,2,2-trifluoro-1-tetrahydropyran-4-yl-ethyl)pyrazole-4-carboxamide] | > 10000 | 10 to 100 | < 10 | < 10
COc1ccc(F)cc1C(=O)NCc1ccc(-c2nn(C3CCNCC3(F)F)c(N)c2C(N)=O)cc1 (stereo not shown) [Example 186, 5-amino-1-(3,3-difluoro-4-piperidyl)-3-[4-[[(5-fluoro-2-methoxy-benzoyl)amino]methyl]phenyl]pyrazole-4-carboxamide] | 1000 to 10000 | < 10 | < 10 | 10 to 100
COc1ccccc1C(=O)NCC(O)c1ccc(-c2nn(C3CCCC3)c(N)c2C(N)=O)cc1C (stereo not shown) [Example 187, 5-amino-1-cyclopentyl-3-[4-[1-hydroxy-2-[(2-methoxybenzoyl)amino]ethyl]-3-methyl-phenyl]pyrazole-4-carboxamide] | 1000 to 10000 | 100 to 1000 | 100 to 1000 | 100 to 1000
COc1ccc(F)cc1C(=O)NCc1ccc(-c2nn(C(C)(C)C(F)(F)F)c(N)c2C(N)=O)cc1 [Example 189, 5-amino-3-[4-[[(5-fluoro-2-methoxy-benzoyl)amino]methyl]phenyl]-1-(2,2,2-trifluoro-1,1-dimethyl-ethyl)pyrazole-4-carboxamide] | 1000 to 10000 | < 10 | < 10 | 10 to 100
COc1ccc(F)cc1C(=O)NCc1ccc(-c2nn(C3(C(F)(F)F)CCOCC3)c(N)c2C(N)=O)cc1 [Example 190, 5-Amino-3-[4-[[(5-fluoro-2-methoxy-benzoyl)amino]methyl]phenyl]-1-[4-(trifluoromethyl)tetrahydropyran-4-yl]pyrazole-4-carboxamide] | 1000 to 10000 | 100 to 1000 | 10 to 100 | 1000 to 10000
COc1ccc(F)cc1C(=O)NCc1ccc(-c2nn(C3CCN(C)CC3(F)F)c(N)c2C(N)=O)cc1 (stereo not shown) [Example 191, 5-amino-1-(3,3-difluoro-1-methyl-4-piperidyl)-3-[4-[[(5-fluoro-2-methoxy-benzoyl)amino]methyl]phenyl]pyrazole-4-carboxamide] | 1000 to 10000 | < 10 | < 10 | 10 to 100
COc1ccc(F)cc1C(=O)NCc1ccc(-c2nn(C(C3CCCCC3)C(F)(F)F)c(N)c2C(N)=O)cc1 (stereo not shown) [Example 192, 5-amino-1-(1-cyclohexyl-2,2,2-trifluoro-ethyl)-3-[4-[[(5-fluoro-2-methoxy-benzoyl)amino]methyl]phenyl]pyrazole-4-carboxamide] | 1000 to 10000 | 10 to 100 | 10 to 100 | 100 to 1000
COc1ccc(F)cc1C(=O)NCc1ccc(-c2nn(C(CCO)C(F)F)c(N)c2C(N)=O)cc1 (stereo not shown) [Example 193, 5-Amino-1-[1-(difluoromethyl)-3-hydroxy-propyl]-3-[4-[[(5-fluoro-2-methoxy-benzoyl)amino]methyl]phenyl]pyrazole-4-carboxamide] | 1000 to 10000 | 10 to 100 | < 10 | 100 to 1000
COc1ccc(F)cc1C(=O)NCc1ccc(-c2nn(C(C(C)(C)C)C(F)(F)F)c(N)c2C(N)=O)cc1 (stereo not shown) [Example 194, 5-amino-1-[2,2-dimethyl-1-(trifluoromethyl)propyl]-3-[4-[[(5-fluoro-2-methoxy-benzoyl)amino]methyl]phenyl]pyrazole-4-carboxamide] | 1000 to 10000 | 10 to 100 | 10 to 100 | 100 to 1000
CCn1nc(-c2ccc(CNC(=O)c3cc(F)ccc3OC)cc2)c(C(N)=O)c1N [Example 195, 5-amino-1-ethyl-3-[4-[[(5-fluoro-2-methoxy-benzoyl)amino]methyl]phenyl]pyrazole-4-carboxamide] | 1000 to 10000 | < 10 | < 10 | 10 to 100
COc1ccc(F)cc1C(=O)NCc1ccc(-c2nn(C(C3CCCC3)C(F)(F)F)c(N)c2C(N)=O)cc1 (stereo not shown) [Example 196, 5-Amino-1-(1-cyclopentyl-2,2,2-trifluoro-ethyl)-3-[4-[[(5-fluoro-2-methoxy-benzoyl)amino]methyl]phenyl]pyrazole-4-carboxamide] | 1000 to 10000 | 10 to 100 | 10 to 100 | 100 to 1000
COc1ccc(F)cc1C(=O)NCc1ccc(-c2nn(C3CN(C(C)C)CC3(F)F)c(N)c2C(N)=O)cc1 (stereo not shown) [Example 197, 5-amino-1-(4,4-difluoro-1-isopropyl-pyrrolidin-3-yl)-3-[4-[[(5-fluoro-2-methoxy-benzoyl)amino]methyl]phenyl]pyrazole-4-carboxamide] | 1000 to 10000 | < 10 | < 10 | 10 to 100
CCN1CC(n2nc(-c3ccc(CNC(=O)c4cc(F)ccc4OC)cc3)c(C(N)=O)c2N)C(F)(F)C1 (stereo not shown) [Example 198, 5-Amino-1-(1-ethyl-4,4-difluoro-pyrrolidin-3-yl)-3-[4-[[(5-fluoro-2-methoxy-benzoyl)amino]methyl]phenyl]pyrazole-4-carboxamide] | 1000 to 10000 | < 10 | < 10 | 10 to 100
COc1ccc(F)cc1C(=O)NCc1ccc(-c2nn(C3CN(C)CC3(F)F)c(N)c2C(N)=O)cc1 (stereo not shown) [Example 199, 5-amino-1-(4,4-difluoro-1-methyl-pyrrolidin-3-yl)-3-[4-[[(5-fluoro-2-methoxy-benzoyl)amino]methyl]phenyl]pyrazole-4-carboxamide] | 1000 to 10000 | < 10 | < 10 | 10 to 100
